Blank lines part the entries; values can stand above or below the compound they belong to.
Columns and labels:
[1] = biological target: T1, Human immunodeficiency virus type 1 reverse transcriptase (Human immunodeficiency virus 1, UniProt Q72547); test: Inhibition of HIV-1 reverse transcriptase associated RNase H activity
[2] = biological target: T1, Human immunodeficiency virus type 1 reverse transcriptase; test: Non-competitive inhibition of HIV reverse transcriptase polymerase activity
[3] = biological target: T1, Human immunodeficiency virus type 1 reverse transcriptase; test: Inhibition of HIV-1 RNase H
[4] = system: Human immunodeficiency virus 1; test: Antiviral activity against wild type HIV-1 infected in human MT4 cells assessed as inhibition of virus-induced cytopathic effect measured by MTT assay; type: functional, organism-based; conditions: Human immunodeficiency virus 1, MT4
[5] = biological target: T2, Human immunodeficiency virus type 1 integrase (Human immunodeficiency virus 1, UniProt Q7ZJM1); test: Inhibition of HIV-1 integrase strand transfer activity
T2 sequence (Q7ZJM1 whole entry): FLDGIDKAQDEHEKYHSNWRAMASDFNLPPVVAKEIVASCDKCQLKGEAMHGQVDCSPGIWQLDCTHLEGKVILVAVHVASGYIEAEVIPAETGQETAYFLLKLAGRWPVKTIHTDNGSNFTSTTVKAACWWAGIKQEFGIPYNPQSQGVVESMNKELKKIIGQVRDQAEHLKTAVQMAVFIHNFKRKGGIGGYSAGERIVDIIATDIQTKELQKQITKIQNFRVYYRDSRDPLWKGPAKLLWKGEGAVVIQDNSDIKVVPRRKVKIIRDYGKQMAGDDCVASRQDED

[6] = Inhibition of HIV-1 reverse transcriptase associated RNA dependent DNA polymerase activity incubated for 30 mins by multilabel counter plate reader method; parameters: species or system Human immunodeficiency virus 1
[7] = Cytotoxicity against human MT4 cells assessed as reduction in cell viability by MTT assay; type: toxicity, cell-based
[8] = Inhibition of wild type HIV-1 RNA dependent DNA polymerase activity incubated for 30 mins by multilabel counter plate reader method; parameters: species or system Human immunodeficiency virus 1
[9] = biological target: T1, Human immunodeficiency virus type 1 reverse transcriptase; test: Inhibition of wild type HIV-1 reverse transcriptase associated DNA polymerase independent RNase H activity using 5-GTTTTCTTTTCCCCCCTGAC-3 Fluorescein/5CAAAAGAAAAGGGGGGACUG-3-Dabcyl RNA/DNA template-primer as substrate by multilabel counter plate reader method
[10] = system: Human immunodeficiency virus 1; test: Antiviral activity against wild type HIV-1 IIIB infected in human MT2 cells assessed as protection against virus-induced cytopathicity incubated for 5 days by MTT assay; type: functional, organism-based; conditions: Human immunodeficiency virus 1, IIIB, MT2, 120 h
[11] = biological target: T1, Human immunodeficiency virus type 1 reverse transcriptase; test: Inhibition of N-terminal 6-his-tagged HIV-1 reverse transcriptase RNase H (427 to 560 residues) transformed in Escherichia coli […] (DE3) at pH 7.4 incubated for 4 hrs
[12] = biological target: T1, Human immunodeficiency virus type 1 reverse transcriptase; test: Inhibition of N-terminal 6-his-tagged HIV-1 reverse transcriptase RNase H (427 to 560 residues) transformed in Escherichia coli […] (DE3) at pH 8.0 incubated for 4 hrs
[13] = biological target: T1, Human immunodeficiency virus type 1 reverse transcriptase; test: Inhibition of recombinant HIV-1 reverse transcriptase […] RNase H expressed in Escherichia coli M15 using 5-GTTTTCTTTTCCCCCCTGAC-3 Fluorescein/5CAAAAGAAAAGGGGGGACUG-3-Dabcyl RNA/DNA template-primer as substrate incubated for 1 hr by multilabel counter plate reader method
[14] = biological target: T1, Human immunodeficiency virus type 1 reverse transcriptase; test: Inhibition of HIV-1 reverse transcriptase associated RNase H using 5-GTTTTCTTTTCCCCCCTGAC-3 Fluorescein/5CAAAAGAAAAGGGGGGACUG-3-Dabcyl as substrate incubated for 1 hr
[15] = system: MT4; test: Cytotoxicity against human MT4 cells; type: functional
[16] = system: Human immunodeficiency virus 1; test: Antiviral activity against HIV-1 infected in human MT4 cells assessed as inhibition of virus-induced cytopathic effect measured after 5 days by spectrophotometric MTT assay; type: functional, organism-based; conditions: Human immunodeficiency virus 1, MT4, 120 h
[17] = biological target: T2, Human immunodeficiency virus type 1 integrase; test: Inhibition of recombinant HIV-1 His-tagged LEDGF-dependent integrase preincubated for 1 hr followed by compound addition and measured after 90 mins by HTRF method
[18] = Cytotoxicity against human TZM-bl cells assessed as reduction in cell viability incubated for 5 days by MTT assay; type: toxicity, cell-based; conditions: time 5 day
[19] = biological target: T1, Human immunodeficiency virus type 1 reverse transcriptase; test: Inhibition of HIV-1 reverse transcriptase RNase H activity expressed in Escherichia coli M15 using 5-GTTTTCTTTTCCCCCCTGAC-3 Fluorescein/5CAAAAGAAAAGGGGGGACUG-3-Dabcyl RNA/DNA template-primer as substrate incubated for 1 hr by multilabel counter plate reader method
[20] = system: Human immunodeficiency virus 1; test: Antiviral activity against HIV-1 IIIB infected in human TZM-bl cells assessed as reduction in virus-induced cytopathic effect incubated for 5 days by MTT assay; type: functional, organism-based; conditions: Human immunodeficiency virus 1, IIIB, 120 h
[21] = in vitro; conditions: human, TZM-bl cells
Description: Cytotoxicity against human TZM-bl cells assessed as reduction in cell viability at 20 uM incubated for 3 days by XTT assay

Structure (SMILES): C=C(C)[C@@H]1CCc2c(c(C)cc(O)c(=O)c2O)C1
IC50 [3]: 0.6 µM

Structure (SMILES): CCOC(=O)C(=O)CC(=O)/C=C/c1cccn1Cc1ccc(F)cc1
EC50 [4]: 14 µM

Structure (SMILES): Nc1ccc(S(=O)(=O)N2CCN(C(=O)c3cc(O)c(O)c(O)c3)CC2)cc1
CC50 [7]: > 19.9 µM

Structure (SMILES): O=C(O)Cc1cc(=O)oc2c(O)c(O)ccc12
IC50 [11]: 4.8 µM
IC50 [12]: 1.1 µM

Structure (SMILES): N#Cc1ccc(-c2c[nH]/c(=N\N=C3/C(=O)Nc4ccccc43)s2)cc1
IC50 [8]: 9.8 µM
IC50 [13]: 1.3 µM

Structure (SMILES): CC1=C[C@H](c2c(O)ccc([C@@H]3CC(=O)c4c(O)cc(O)cc4O3)c2O)[C@@H](C(=O)c2ccc(O)cc2O)[C@H](c2ccc(O)cc2O)C1 [KUWANON L]
CC50 at 72 h [21]: > 20 µM

Continued, in another order:

IC50 [1]: 0.65 µM
IC50 [2]: 2.6 µM
Structure (SMILES): O=C1Cc2ccc(-c3ccco3)cc2C(=O)N1O

IC50 [3]: 0.13 µM
Structure (SMILES): COC(=O)c1c(C)cc(O)c(=O)c(O)c1Br

IC50 [5]: 5 µM
IC50 [6]: 6.7 µM
Structure (SMILES): Cc1c(O)c([N+](=O)[O-])cc2cc(C(=O)Nc3ccc(O)c(C(=O)O)c3)c(=O)oc12

IC50 [6]: 6 µM
Structure (SMILES): COC(=O)c1cc(NC(=O)c2cc3cc([N+](=O)[O-])c(O)c(O)c3oc2=O)ccc1O

IC50 [8]: 17 µM
IC50 [9]: 7 µM
Structure (SMILES): Nc1nn(C(=O)c2ccccc2)c(N)c1C(=S)Nc1ccc(Cl)cc1
IC50 [10]: 25 µM

IC50 [9]: 9.5 µM
IC50 [3]: 10 µM
Structure (SMILES): Cn1cc(-c2ccc(-c3ccccc3)cc2)s/c1=N/N=C1\C(=O)Nc2ccc(Cl)cc21

IC50 [14]: 1.7 µM
IC50 [17]: 16 µM
Structure (SMILES): O=C(N/N=C/c1ccc(O)cc1O)c1cc(O)c(O)c(O)c1
CC50 [15]: 61 µM
EC50 [16]: 17 µM

IC50 [19]: 14 µM
IC50 [6]: 16.1 µM
Structure (SMILES): COc1cc(OC)cc(OC(=O)c2ccc(C(F)(F)F)nc2Nc2cc(Cl)ccc2C)c1
CC50 at 120 h [18]: > 50 µM
EC50 [20]: 5 µM

Reference: ChEMBL document CHEMBL5331055, “Current medicinal chemistry strategies in the discovery of novel HIV-1 ribonuclease H inhibitors” (Eur J Med Chem, 2022)
